# In patent US20250312352A1, “GLP-1R MODULATING COMPOUNDS” (Gilead Sciences, Inc., priority 2021, published 2025):
# Biological target: T1, GLP-1R (Homo sapiens, UniProt P43220)
# T1 construct: host or cells: CHO cells
# Test: GLP-1R activation cAMP assay (Assay 1 or Assay 2)
# Assay type: cell-based
# Conditions: cAMP increase in CHO cells stably expressing GLP-1R; compounds run on one of the two cAMP assays
# Method: GLP-1R ACTIVATION—cAMP Assay 1
# GLP-1R activation by compounds of the present disclosure was quantified by measuring cAMP increase in CHO cells stably expressing GLP-1R (MultiSpan product #C1267-1a). The cells were harvested and plated in growth medium (DMEM/F-12 (Corning product #10-090-CV) supplemented with 10% FBS (HyClone product #SH30071-03), penicillin/streptomycin (Corning product #30-002CI) and 10 μg/ml puromycin (Gibco product #A11138-03)) at 1,000 cells/well in a 384-well plate (Greiner product #781080). The cells were then incubated overnight at 37° C., 5% CO2. The next day, the medium was removed and the cells were washed with DPBS (Corning product #21-031-CM) before adding the assay medium (HBSS, Corning product #21-023-CV) with 20 mM Hepes (Gibco product #15630-080) and 0.1% BSA (Rockland Immunochemicals product #BSA-1000)). Following the medium change, the cells were incubated for 1 hour at 37° C., 5% CO2. The tested GLP-1 compound was added to the cells in a 10-point dose response followed by a 30-minute incubation at 37° C., 5% CO2. cAMP concentration increase was then detected using Cisbio's cAMP Gs Dynamic Kit (product #62AM4PEC) according to the manufacturer's protocol. The response was plotted against the log of the agonist concentration and fitted to a sigmoidal equation to determine the EC50.
# GLP-1R ACTIVATION—cAMP Assay 2
# GLP-1R activation by small molecule agonists was quantified by measuring cAMP increase in CHO cells stably expressing GLP-1R (MultiSpan product #C1267-1a). 50 nL of agonists were pre-spotted in a 10-point dose response onto 384-well plate (Corning product #CL3826) using the Labcyte Echo System.
# T1 sequence (P43220 24-463): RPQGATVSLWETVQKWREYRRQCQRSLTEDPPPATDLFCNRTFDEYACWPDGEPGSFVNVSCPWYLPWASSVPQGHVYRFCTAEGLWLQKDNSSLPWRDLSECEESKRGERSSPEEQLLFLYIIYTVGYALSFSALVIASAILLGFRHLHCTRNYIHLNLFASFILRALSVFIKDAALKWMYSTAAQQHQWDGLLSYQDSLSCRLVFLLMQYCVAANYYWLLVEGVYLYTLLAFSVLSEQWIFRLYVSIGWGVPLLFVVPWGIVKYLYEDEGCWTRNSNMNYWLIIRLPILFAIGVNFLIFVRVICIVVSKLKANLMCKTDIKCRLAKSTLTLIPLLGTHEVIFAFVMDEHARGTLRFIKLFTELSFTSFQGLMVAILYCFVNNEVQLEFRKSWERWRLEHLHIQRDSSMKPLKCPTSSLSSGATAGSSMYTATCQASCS
row,SMILES,EC50 [nM]
1,"N#Cc1csc(COc2cccc(-c3cc(F)c(Cc4nc5ccc(C(=O)O)cc5n4C[C@@H]4CCO4)cc3F)n2)n1 [Example 23, (S)-2-(4-(6-((4-cyanothiazol-2-yl)methoxy)pyridin-2-yl)-2,5-difluorobenzyl)-1-(oxetan-2-ylmethyl)-1H-benzo[d]imidazole-6-carboxylic acid]",1.43
2,"O=C(O)c1ccc2nc(Cc3cc(F)c(-c4cccc(OCc5cc(C(F)(F)F)on5)n4)cc3F)n(C[C@@H]3CCO3)c2c1 [Example 24, (S)-2-(2,5-difluoro-4-(6-((5-(trifluoromethyl)isoxazol-3-yl)methoxy)pyridin-2-yl)benzyl)-1-(oxetan-2-ylmethyl)-1H-benzo[d]imidazole-6-carboxylic acid]",1.54
3,"O=C(O)c1ccc2nc(Cc3cc(F)c(-c4cccc(OCc5nnc(C(F)(F)F)s5)n4)cc3F)n(C[C@@H]3CCO3)c2c1 [Example 25, (S)-2-(2,5-difluoro-4-(6-((5-(trifluoromethyl)-1,3,4-thiadiazol-2-yl)methoxy)pyridin-2-yl)benzyl)-1-(oxetan-2-ylmethyl)-1H-benzo[d]imidazole-6-carboxylic acid]",0.53
4,"O=C(O)c1ccc2nc(Cc3cc(F)c(-c4cccc(OCc5nc6cccnc6s5)n4)cc3F)n(C[C@@H]3CCO3)c2c1 [Example 26, (S)-2-(2,5-difluoro-4-(6-(thiazolo[5,4-b]pyridin-2-ylmethoxy)pyridin-2-yl)benzyl)-1-(oxetan-2-ylmethyl)-1H-benzo[d]imidazole-6-carboxylic acid]",0.23
5,"Cc1nc(COc2cccc(-c3cc(F)c(Cc4nc5ccc(C(=O)O)cc5n4C[C@@H]4CCO4)cc3F)n2)sc1Br [Example 27, (S)-2-(4-(6-((5-bromo-4-methylthiazol-2-yl)methoxy)pyridin-2-yl)-2,5-difluorobenzyl)-1-(oxetan-2-ylmethyl)-1H-benzo[d]imidazole-6-carboxylic acid]",0.08
6,"O=C(O)c1ccc2nc(Cc3cc(F)c(-c4cccc(OCc5cc6ccccn6n5)n4)cc3F)n(C[C@@H]3CCO3)c2c1 [Example 28, (S)-2-(2,5-difluoro-4-(6-(pyrazolo[1,5-a]pyridin-2-ylmethoxy)pyridin-2-yl)benzyl)-1-(oxetan-2-ylmethyl)-1H-benzo[d]imidazole-6-carboxylic acid]",0.44
7,"O=C(O)c1ccc2nc(Cc3cc(F)c(-c4cccc(OCc5cn6cccnc6n5)n4)cc3F)n(C[C@@H]3CCO3)c2c1 [Example 29, (S)-2-(2,5-difluoro-4-(6-(imidazo[1,2-a]pyrimidin-2-ylmethoxy)pyridin-2-yl)benzyl)-1-(oxetan-2-ylmethyl)-1H-benzo[d]imidazole-6-carboxylic acid]",13.7
8,"O=C(O)c1ccc2nc(Cc3cc(F)c(-c4cccc(OCc5cn6ccccc6n5)n4)cc3F)n(C[C@@H]3CCO3)c2c1 [Example 30, (S)-2-(2,5-difluoro-4-(6-(imidazo[1,2-a]pyridin-2-ylmethoxy)pyridin-2-yl)benzyl)-1-(oxetan-2-ylmethyl)-1H-benzo[d]imidazole-6-carboxylic acid]",1.99
9,"N#Cc1ccc2nc(COc3cccc(-c4cc(F)c(Cc5nc6ccc(C(=O)O)cc6n5C[C@@H]5CCO5)cc4F)n3)cn2c1 [Example 31, (S)-2-(4-(6-((6-cyanoimidazo[1,2-a]pyridin-2-yl)methoxy)pyridin-2-yl)-2,5-difluorobenzyl)-1-(oxetan-2-ylmethyl)-1H-benzo[d]imidazole-6-carboxylic acid]",1.32
10,"O=C(O)c1ccc2nc(Cc3cc(F)c(-c4cccc(OCc5cn6cc(Cl)ccc6n5)n4)cc3F)n(C[C@@H]3CCO3)c2c1 [Example 32, (S)-2-(4-(6-((6-chloroimidazo[1,2-a]pyridin-2-yl)methoxy)pyridin-2-yl)-2,5-difluorobenzyl)-1-(oxetan-2-ylmethyl)-1H-benzo[d]imidazole-6-carboxylic acid]",0.79
11,"O=C(O)c1ccc2nc(Cc3cc(F)c(-c4cccc(OCc5cn6ccncc6n5)n4)cc3F)n(C[C@@H]3CCO3)c2c1 [Example 33, (S)-2-(2,5-difluoro-4-(6-(imidazo[1,2-a]pyrazin-2-ylmethoxy)pyridin-2-yl)benzyl)-1-(oxetan-2-ylmethyl)-1H-benzo[d]imidazole-6-carboxylic acid]",1.75
12,"O=C(O)c1ccc2nc(Cc3cc(F)c(-c4cccc(OCc5nc6ccccc6s5)n4)cc3F)n(C[C@@H]3CCO3)c2c1 [Example 34, (S)-2-(4-(6-(benzo[d]thiazol-2-ylmethoxy)pyridin-2-yl)-2,5-difluorobenzyl)-1-(oxetan-2-ylmethyl)-1H-benzo[d]imidazole-6-carboxylic acid]",0.2
13,"O=C(O)c1ccc2nc(Cc3cc(F)c(-c4cccc(OCc5nc6cc(Cl)ccc6s5)n4)cc3F)n(C[C@@H]3CCO3)c2c1 [Example 35, (S)-2-(4-(6-((5-chlorobenzo[d]thiazol-2-yl)methoxy)pyridin-2-yl)-2,5-difluorobenzyl)-1-(oxetan-2-ylmethyl)-1H-benzo[d]imidazole-6-carboxylic acid]",0.22
14,"Cn1nccc1COc1cccc(-c2cc(F)c(Cc3nc4ccc(C(=O)O)cc4n3C[C@@H]3CCO3)cc2F)n1 [Example 36, (S)-2-(2,5-difluoro-4-(6-((1-methyl-1H-pyrazol-5-yl)methoxy)pyridin-2-yl)benzyl)-1-(oxetan-2-ylmethyl)-1H-benzo[d]imidazole-6-carboxylic acid]",5.28
15,"Cn1nc(COc2cccc(-c3cc(F)c(Cc4nc5ccc(C(=O)O)cc5n4C[C@@H]4CCO4)cc3F)n2)cc1CC#N [Example 37, (S)-2-(4-(6-((5-(cyanomethyl)-1-methyl-1H-pyrazol-3-yl)methoxy)pyridin-2-yl)-2,5-difluorobenzyl)-1-(oxetan-2-ylmethyl)-1H-benzo[d]imidazole-6-carboxylic acid]",8.46
16,"Cn1nc(COc2cccc(-c3cc(F)c(Cc4nc5ccc(C(=O)O)cc5n4C[C@@H]4CCO4)cc3F)n2)cc1Cl [Example 38, (S)-2-(4-(6-((5-chloro-1-methyl-1H-pyrazol-3-yl)methoxy)pyridin-2-yl)-2,5-difluorobenzyl)-1-(oxetan-2-ylmethyl)-1H-benzo[d]imidazole-6-carboxylic acid]",0.6
17,"Cn1nc(COc2cccc(-c3cc(F)c(Cc4nc5ccc(C(=O)O)cc5n4C[C@@H]4CCO4)cc3F)n2)cc1C1CC1 [Example 39, (S)-2-(4-(6-((5-cyclopropyl-1-methyl-1H-pyrazol-3-yl)methoxy)pyridin-2-yl)-2,5-difluorobenzyl)-1-(oxetan-2-ylmethyl)-1H-benzo[d]imidazole-6-carboxylic acid]",0.86
18,"Cn1nc(COc2cccc(-c3cc(F)c(Cc4nc5ccc(C(=O)O)cc5n4C[C@@H]4CCO4)cc3F)n2)cc1C(F)F [Example 40, (S)-2-(4-(6-((5-(difluoromethyl)-1-methyl-1H-pyrazol-3-yl)methoxy)pyridin-2-yl)-2,5-difluorobenzyl)-1-(oxetan-2-ylmethyl)-1H-benzo[d]imidazole-6-carboxylic acid]",0.83
19,"COc1cc(C(=O)NC2(C#N)CC2)ncc1COc1cccc(-c2cc(F)c(Cc3nc4ccc(C(=O)O)cc4n3C[C@@H]3CCO3)cc2F)n1 [Example 41, (S)-2-(4-(6-((6-((1-cyanocyclopropyl)carbamoyl)-4-methoxypyridin-3-yl)methoxy)pyridin-2-yl)-2,5-difluorobenzyl)-1-(oxetan-2-ylmethyl)-1H-benzo[d]imidazole-6-carboxylic acid]",0.17
20,"COc1cc(C(=O)NC2(C#N)CC2)ncc1COc1cccc(-c2cc(F)c(Cc3nc4c(F)cc(C(=O)O)cc4n3C[C@@H]3CCO3)cc2F)n1 [Example 42, (S)-2-(4-(6-((6-((1-cyanocyclopropyl)carbamoyl)-4-methoxypyridin-3-yl)methoxy)pyridin-2-yl)-2,5-difluorobenzyl)-4-fluoro-1-(oxetan-2-ylmethyl)-1H-benzo[d]imidazole-6-carboxylic acid]",0.07
21,"CNC(=O)c1ccc(COc2cccc(-c3cc(F)c(Cc4nc5ccc(C(=O)O)cc5n4C[C@@H]4CCO4)cc3F)n2)cn1 [Example 43, (S)-2-(2,5-difluoro-4-(6-((6-(methylcarbamoyl)pyridin-3-yl)methoxy)pyridin-2-yl)benzyl)-1-(oxetan-2-ylmethyl)-1H-benzo[d]imidazole-6-carboxylic acid]",0.3
22,"CN(C)C(=O)c1ccc(COc2cccc(-c3cc(F)c(Cc4nc5ccc(C(=O)O)cc5n4C[C@@H]4CCO4)cc3F)n2)cn1 [Example 44, (S)-2-(4-(6-((6-(dimethylcarbamoyl)pyridin-3-yl)methoxy)pyridin-2-yl)-2,5-difluorobenzyl)-1-(oxetan-2-ylmethyl)-1H-benzo[d]imidazole-6-carboxylic acid]",75.3
23,"CNC(=O)c1cc(Cl)c(COc2cccc(-c3cc(F)c(Cc4nc5ccc(C(=O)O)cc5n4C[C@@H]4CCO4)cc3F)n2)cn1 [Example 46, (S)-2-(4-(6-((4-chloro-6-(methylcarbamoyl)pyridin-3-yl)methoxy)pyridin-2-yl)-2,5-difluorobenzyl)-1-(oxetan-2-ylmethyl)-1H-benzo[d]imidazole-6-carboxylic acid]",0.14
